According to patent publication US5478928A, “2',3'-dideoxy-4'-thioribonucleosides and synthetic precursors thereof” (priority 1993, dated 1995):
≈ marks a conversion by molar mass, not a printed value. Read-outs that look alike come from different tables or passages of the source.

Assays:
[1] = test system: CEM cells infected with HIV virus (HIV-1 isolates IIIB and/or RF); test: Inhibition of HIV cytopathogenic effects (CPE) in CEM cells (MTT); format: cell-based; details: for SI (selectivity index): TC25 divided by the ID50; for TAI (total antiviral index): area between the cytotoxicity and the antiviral curves; for IC50: Human immunodeficiency virus 1, IIIB, CCRF-CEM, read-out: IC50 (minimum drug concentration that inhibited CPE by 50%)
Procedure: (§1) Compounds of the present invention are readily screened for anti-HIV activity by the following standard screening assay in CEM and MT2 cells.
(§2) 1. Compound dilution and delivery to the plates. Test compounds are solubilized in the appropriate vehicle such as distilled water, DMSO, methyl alcohol, or other vehicle. The maximum solubility is determined as appropriate. Latex gloves, lab coats, and masks are used during all phases of the handling process to prevent exposure to potentially harmful agents. At highest solubility, the test compound is prepared and stored at -20° C. until used by the screening laboratory. The first dilution of each compound is made tube with medium to yield a concentration two-fold that of the highest test concentration. Sterile titer tubes are then used to make serial one half log dilutions of each compound. Following dilution, the diluted compound is added to the appropriate well of a 96-well microtiter plate. Up to 12 dilutions can be conveniently assayed in triplicate on a single plate with all appropriate controls, including cell control, virus control, toxicity control, drug color control, medium control and plastic control. When testing includes only six dilutions, two drugs can be assayed on a single microtiter plate. The test compounds are added to the plate in a final volume of 100 microliters.
(§3) 2. Cells and virus. During the time that the test compound dilutions are prepared, cells are washed and counted. Viability is monitored by trypan blue dye exclusion and assays are not performed if the viability falls below 90%. Cells are maintained in an exponential growth phase and are split 1:2 on the day prior to assay to assure adequate growth rate. For the primary screen, the cell line utilized is CEM cells. […] However, both cell lines are available and being used at all times and can be substituted or used in addition to CEM cells as requested. Unless otherwise indicated, the medium is phenol red-free RPMI 1640 with 10% heat-inactivated fetal calf serum (FBS), glutamine and antibiotics. Cells are propagated at 37° C. in an atmosphere of 5% CO2 in air. The virus employed for this work is HIV-1 isolates IIIB and/or RF prepared by the acute infection process as follows: Briefly, virus infected cells are pelleted on a daily basis beginning at three days postinfection until the virus has killed all of the cells in the culture. Reverse transcriptase activity and p24 ELISA are used to identify pools with the greatest amount of virus. These 24-hour harvests are pooled, filtered and frozen at -90° C. Prior to use in the assay the virus is titered on all available cell lines in order to determine the amount of virus required in the assay. In general, pools produced by the acute virus method require the addition of one microliter of infectious virus per well resulting in the screening of drugs on a multiplicity of infection of 0.01. In this manner enough virus is prepared and frozen to complete over one thousand microtiter plates, allowing the testing of up to two thousand compounds from a single stock. […] Virus infection of the CEM cells is carried in a bulk infection process. The appropriate number of cells required to complete the assay are mixed with infectious virus in a conical centrifuge tube in a small total volume of 1-2 milliliters. Following a one hour incubation the infected cells are brought to the appropriate final concentration of 5×10^4 cells per milliliter with fresh tissue culture medium and 100 microliters are added to the appropriate experimental and virus control wells. Uninfected cells at the same concentration are plated for the toxicity controls and for the cell controls.
(§4) 3. Evaluation of CPE-inhibition. Following the addition of cells and test compounds to the microtiter plate, the plate is incubated for 6 days at 37° C.

[2] = test system: CEM cells; test: Cytotoxicity (cell viability) in CEM cells
Procedure: as §1, §2, §3, §4

[3] = test system: MT-2 cells infected with HIV virus (HIV-1 isolates IIIB and/or RF); test: Inhibition of HIV cytopathogenic effects (CPE) in MT-2 cells (MTT); format: cell-based; details: for IC50: Human immunodeficiency virus 1, IIIB; for SI (selectivity index): TC25 divided by the ID50; for TAI (total antiviral index): area between the cytotoxicity and the antiviral curves
Procedure: as §1, §2, §3, §4

[4] = test system: MT-2 cells; test: Cytotoxicity (cell viability) in MT-2 cells
Procedure: as §1, §2, §3, §4

[5] = test system: AIDS; details: cited from earlier work
[6] = CEM cells, means of several experiments
[7] = MT2, MT-2 cells, means of several experiments, read-out: IC50 (minimum drug concentration that inhibited CPE by 50%)
[8] = MT-2 cells, means of several experiments

| SMILES | SI (selectivity index) ([1]; CEM cells) | TAI (total antiviral index) ([1]; CEM cells) | IC50 [1, 6] [µg/mL] | TC25 (minimum drug concentration that reduced cell viability by 25%) [2, 6] [µg/mL] | TAI (total antiviral index) ([3]; MT-2 cells) | TC25 (minimum drug concentration that reduced cell viability by 25%) [4, 8] [µg/mL] | other results |
| --- | --- | --- | --- | --- | --- | --- | --- |
| Cc1cn([C@H]2C[C@H](N=[N+]=[N-])[C@@H](CO)S2)c(=O)[nH]c1=O | > 222.02 | > 60.15 | 0.45 (≈ 1.59 µM) | > 100 | – | – | – |
| Nc1nc2c(ncn2[C@H]2CC[C@@H](CO)S2)c(=O)[nH]1 [4'-thio-2',3'-dideoxy-guanosine, 4'-Thio-2',3'-dideoxy-guanosine] | – | 0.0 | – | > 100 | 11.0 | > 200 | IC50 [3, 7]: 98 µg/mL (≈ 367 µM); SI (selectivity index) ([3]; MT-2 cells): 1.6 |
| Nc1ccn([C@H]2CC[C@@H](CO)S2)c(=O)n1 [4'-thio-2',3'-dideoxycytidine, 4'-Thio-2',3'-dideoxycytidine] | > 100 | > 65 | 1 (≈ 4.4 µM) | > 100 | – | – | – |
| OC[C@@H]1CC[C@H](n2cnc3c(O)ncnc32)S1 [4'-thio-2',3'-dideoxyinosine, 4'-Thio-2',3'-dideoxyinosine] | – | – | – | – | > 4.0 | > 100 | – |
| Cc1cn([C@H]2CC[C@@H](CO)S2)c(=O)[nH]c1=O [4'-thio-3'-deoxythymidine, 4'-Thio-3'-deoxythymidine] | – | 4.0 | – | > 150 | > 4.0 | > 100 | – |
| Nc1ncnc2c1ncn2[C@H]1CC[C@@H](CO)S1 [4-'-thio-2'3'-dideoxyadenosine, 4'-Thio-2',3'-dideoxyadenosine] | – | – | – | – | > 17 | > 100 | IC50 [3, 7]: 80 µg/mL (≈ 318 µM); SI (selectivity index) ([3]; MT-2 cells): 1.3 |
| Nc1nc(N)c2ncn([C@H]3CC[C@@H](CO)S3)c2n1 [9-(4-Thio-2,3-dideoxy-D-ribofuranosyl)-2,6-diaminopurine] | 2.6 | 21.0 | 37 (≈ 139 µM) | 97.0 (≈ 364 µM) | – | – | – |
| Nc1nc(Cl)nc2c1ncn2[C@H]1CC[C@@H](CO)S1 [9-(4-Thio-2,3-dideoxy-D-ribofuranosyl)-2-chloro-6-aminopurine] | – | – | – | 5.74 (≈ 20.1 µM) | – | – | – |
| OC[C@@H]1CC[C@H](n2cnc3c(Cl)ncnc32)S1 [9-(4-Thio-2,3-dideoxy-D-ribofuranosyl)-6-chloropurine] | – | – | – | – | 0.0 | 21 (≈ 77.6 µM) | – |
| Cc1cn([C@H]2C[C@H](N=[N+]=[N-])[C@@H](CO)O2)c(=O)[nH]c1=O [AZT, 3'-azido-3'-deoxythymidine, reference compound] | > 313 | > 93 | – | > 10 | > 82 | 9.3 (≈ 34.8 µM) | potency for the treatment of AIDS ([5]; background): particularly potent; side effects ([5]; background): undesirable side effects; IC50 ([3]; MT2, read-out: IC50 (minimum drug concentration that inhibited CPE by 50%)): 0.14 µg/mL (≈ 0.524 µM); SI (selectivity index) ([3]; MT-2 cells): > 160; IC50 [1]: < 0.03 µg/mL |
| Nc1ccn([C@H]2CC[C@@H](CO)O2)c(=O)n1 [DDC, dideoxycytidine, reference compound] | 120 | > 63 | 0.05 (≈ 0.237 µM) | – | > 52 | – | side effects [5]: undesirable side effects; IC50 [3, 7]: 0.44 µg/mL (≈ 2.08 µM); TC25 (minimum drug concentration that reduced cell viability by 25%) ([4]; human): > 9.8 µg/mL; TC25 (minimum drug concentration that reduced cell viability by 25%) ([2]; human): 5.3 µg/mL (≈ 25.1 µM) |
| CNc1ncnc2c1ncn2[C@H]1CC[C@@H](CO)S1 [N^6 -Methyl-4'-thio-2',3'-dideoxyadenosine] | – | – | – | – | 1.0 | > 100 | – |
| O=c1[nH]cnc2c1ncn2[C@H]1CC[C@@H](CO)O1 [dideoxyinosine] | – | – | – | – | – | – | side effects [5]: undesirable side effects |
